Assay results as given in patent US4300557A, “Method for treating intraocular malignancies” (The United States of America as represented by the …, priority 1980, dated 1981).
Several values for one entry are separate records, joined by “and”; a condition that tells them apart may be missing. Equal entries are not always repeated. Where two headings read alike, the source gives them in different places.

Assays:
Brown-Pearce epithelioma = test: In vivo testing in rabbits with intracameral Brown-Pearce epithelioma, clinical results; parameters: species or system New Zealand female albino rabbits; reduction in tumor growth: dose or concentration left out as unconfirmed; details: for Day Tumor Destroyed Whole Eye, Treated Eye: * eye not yet destroyed by day of enucleation
Description: Preoperative examination of 28 eyes in 14 New Zealand femal albino rabbits weighing 2.0 to 2.5 kg included biomicroscopy, tonotometry, and indirect ophthalmoscopy. All animals had normal eyes. Both eyes of each animal were inoculated intracamerally with Brown-Pearce epithelioma tissue by the technique at 993 of Liu et al., Invest. Ophthalmol Visual Sci., Vol. 17 (1978).
Three days after tumor tissue implantation, a silicone device described in Example 1 was implanted episclerally in each eye. Animals were anesthetized with sodium pentobarbital 24 mg/kg body weight administered intravenously. After routine preparation of the rabbit and the eyes, a pocket beneath the conjunctiva and Tenon's capsule was made in the upper temporal quadrant of the eye. The silicone device was inserted into the pocket but the small tube remained accessible to permit injection of test substance. Two 7-0 silk sutures were applied on both shoulders of the silicone device and on the episcleral tissue at the pars plana to hold the device in position. The conjunctiva was closed with two 7-0 silk sutures. […] 5. The injecting tube was fixed on the upper fornix.
Seven animals (Group 1A) received 3.0 mg of BCNU in 0.15 ml of sesame oil in one eye on the third, sixth, and ninth days after tumor implantation (total dose 9.0 mg). Three animals (Group 1B) received 12.0 mg of BCNU in 0.15 ml of sesame oil on the same schedule (total dose 36.0/mg). […] The fellow eyes served as controls and received diluent only.
Ocular examinations were made on alternate days during the 20 days following tumor implantation; at that time all eyes were enucleated. The effectiveness of treatment was measured by (1) comparing the extent of tumor growth in the anterior chamber of treated and control eyes, (2) noting the occurrence of distortion and perforation of the globe due to tumor growth, (3) weighing all eyes following enucleation, and (4) comparing the histopathologic changes in the eyes.
Clinical results, tabulated below, indicate the day on which the tumor occupied the anterior chamber and the weight of the enucleated eyes. The first day was the day on which tumor tissue was implanted.

[1] = Solubility and stability of BCNU in vehicles (statements); format: physicochemical
[2] = cited from earlier work
[3] = ethanol in silicone rubber capsule, Schmidt et al.; cited from earlier work
[4] = cited from earlier work; remark: listed apart in the source
[5] = Group IA: 3.0 mg BCNU in sesame oil, days 3, 6 and 9
[6] = Group IB: 12.0 mg BCNU in sesame oil, days 3, 6 and 9
[7] = Group II: 13.0 mg BCNU in pure ethanol, days 3 and 6

O=NN(CCCl)C(=O)NCCCl [BCNU, 1,3-bis-(2-chloroethyl)-1-nitrosourea]
reduction of tumor growth (Brown-Pearce epithelioma; 3.0 or 12.0 mg BCNU in 0.15 ml sesame oil, days 3, 6 and 9): Significant reduction of tumor growth
therapeutic results (Brown-Pearce epithelioma; BCNU in absolute ethanol, silicone balloons 0.1-0.2 mm wall): good therapeutic results
Aver. wt of eyes after enucleation, treated eye (Brown-Pearce epithelioma; Group I (IA and IB), sesame oil, 10 treated eyes): 5.2 g
growth of the implanted tumor tissue in the anterior chamber (Brown-Pearce epithelioma; Group I, BCNU in sesame oil): slowed in all 10 eyes
Aver. wt of eyes after enucleation, treated eye (Brown-Pearce epithelioma; Group IA, 3.0 mg in sesame oil): 5.7 g
eyes retaining normal shape and size without distortion for 15 days (Brown-Pearce epithelioma; Group IA, three doses of 3.0 mg in sesame oil, 15 days after tumor implantation): six eyes of the seven
Day Tumor Occupied Anterior Chamber, Treated Eye (Brown-Pearce epithelioma; [5]): 13 days and 14 days and 12 days and 18 days
Day Tumor Destroyed Whole Eye, Treated Eye (Brown-Pearce epithelioma; [5]): 18 days and 19 days and 17 days and 16 days and > 18 days and 15 days
Aver. wt of eyes after enucleation, treated eye (Brown-Pearce epithelioma; Group IB, 12.0 mg in sesame oil): 4.1 g
eyes retaining normal shape and size without distortion for 19 days (Brown-Pearce epithelioma; Group IB, three doses of 12.0 mg in sesame oil, 19 days after tumor implantation): Two eyes of the three
Day Tumor Occupied Anterior Chamber, Treated Eye (Brown-Pearce epithelioma; [6]): 20 days and 17 days and 11 days
Weight of Eyes After Enucleation, Treated Eye (Brown-Pearce epithelioma; [6]): 3.5 g and 5.2 g
Day Tumor Destroyed Whole Eye, Treated Eye (Brown-Pearce epithelioma; [6]): > 20 days and 20 days and 17 days
average weight of the four treated eyes after enucleation (Brown-Pearce epithelioma; Group II, BCNU in pure ethanol): 3.1 gm
response of treated eyes (Brown-Pearce epithelioma; Group II, BCNU in pure ethanol): Each of the four eyes treated showed good response
tumor tissue growth in the anterior chamber on the fifteenth day (Brown-Pearce epithelioma; Group II, BCNU in pure ethanol, day 15): almost completely arrested in three of the four treated eyes
eyes retaining normal shape and size on the twentieth day (Brown-Pearce epithelioma; Group II, BCNU in pure ethanol, day 20): all four treated eyes retained their normal shape and size
Aver. wt of eyes after enucleation, treated eye (Brown-Pearce epithelioma; Group II, pure ethanol): 3.1 g
Day Tumor Occupied Anterior Chamber, Treated Eye (Brown-Pearce epithelioma; [7]): 18 days and 15 days and 20 days
Weight of Eyes After Enucleation, Treated Eye (Brown-Pearce epithelioma; [7]): 2.8 g and 3.2 g and 3.3 g
Day Tumor Destroyed Whole Eye, Treated Eye (Brown-Pearce epithelioma; [7]): > 20 days and > 29 days
reduction in tumor growth (Brown-Pearce epithelioma; absolute ethanol (so in the source), days 3 and 6): greatest reduction in tumor growth
Aver. wt. of eyes after enucleation, treated eye (Brown-Pearce epithelioma; all eyes (Groups I and II)): 4.6 g
solubility in absolute ethanol ([1]; absolute ethanol as solvent for BCNU): excellent solvent for BCNU
solubility in sesame oil ([1]; sesame oil): fairly soluble
stability in sesame oil ([1]; sesame oil): relatively stable
reported half-life of BCNU in water ([2]; Montgomery et al., J. Med. Chem. 1967): 5.08 h
reported half-life of BCNU in water ([2]; Schmidt et al., supra): 2.33 h
Decomposition of BCNU in water ([2]; in water, of the order of): 140 to 305 min
decrease in BCNU concentration in the dialysate [3]: rapid decrease in BCNU concentration in the dialysate
degradation in aqueous media [4]: degrades rapidly in aqueous media
